Data: US20230257385A1, “SALT AND SOLID FORMS OF TABERNANTHALOG” (priority 2021, published 2023)

How the values were obtained:
[1] = assay type: physicochemical; settings: salt screen, Experiment 2
Method: Tabernanthalog (native) (50 mg, 1 wt) was charged to a solution of the relevant counter ion (1.0 mol equivalence of counter ion) in ethanol (5.0 vol, 250 μl). The mixtures were warmed to 85° C. and small aliquots of water were added until dissolution occurred (Table 212 for additional charges of solvent). The solutions were cooled and allowed to stand undisturbed under sub-ambient conditions overnight (Table 211). […] Products were isolated via centrifugation. The corresponding pellets were sub-sampled and analyzed wet by XRPD; after which, they were dried at 40° C. under reduced pressure over 20 h and reanalyzed by XRPD. […] Once the crystallization experiments were completed, salt formation was confirmed by ^1H NMR, XRPD, DSC and TGA.

[2] = Heat-up/cool down (HUCD) crystallization of the monofumarate salt (Experiment Reference 11); assay type: physicochemical; settings: for XRPD (oven dried): form of product from HUCD crystallization of tabernanthalog fumarate Sample Reference 1 (Pattern #1), solvents per sample as in E1; for Observations (t = 0 @ T = 20° C.): input tabernanthalog fumarate Sample Reference 1 (Pattern #1), Solvent A/B: 11-A acetone/water, 11-B acetonitrile/water, 11-C butanol/water, 11-D tBME/methanol, 11-E DCM/methanol, 11-F ethanol/water, 11-G methyl acetate/water/methanol, 11-H 2-propanol/water, 11-1 methanol, 11-J MEK/water, 11-K 2-MeTHF/methanol, 11-L THF/water, 11-M toluene/methanol, 11-N water, 11-O dioxane/water, 11-P CPME/methan
Method: Separate portions of the tabernanthalog monofumarate salt (Pattern #1, Sample Reference 1, ca 75 mg, 1.0 wt.) were charged to separate vessels. The appropriate solvents (750 μl, 10.0 vol, refer to Table 106) were charged to the relevant vessels and subsequent charges of the appropriate co-solvent were made to accomplish dissolution at reflux. The solutions were cooled to 18 to 23° C. and allowed to stand undisturbed, until crystallization was judged complete. After this time the products were isolated by centrifugation, washed with recycled maturation solvent, dried under reduced pressure at 40° C. and analyzed by XRPD for evidence of alternative crystalline forms.

COc1ccc2c3c([nH]c2c1)CCN(C)CC3.O=C(O)[C@@H](O)[C@H](O)[C@H](O)[C@@H](O)C(=O)O [Tabernanthalog · Galactarate]
Flat baseline pre-melt (TGA)? [1]: ✓ | Unique XRPD? [1]: v. Disordered

COc1ccc2c3c([nH]c2c1)CCN(C)CC3 [Tabernanthalog · Sorbate]
Discrete melt (DSC)? [1]: ✓ | Flat baseline (DSC)? [1]: ✓ | Flat baseline pre-melt (TGA)? [1]: ✓ | Unique XRPD? [1]: ✓

COc1ccc2c3c([nH]c2c1)CCN(C)CC3.O=C[C@H](O)[C@@H](O)[C@H](O)[C@H](O)C(=O)O [Tabernanthalog · Glucuronate]
Discrete melt (DSC)? [1]: ✓ | Flat baseline (DSC)? [1]: ✓ | Flat baseline pre-melt (TGA)? [1]: ✓ | Unique XRPD? [1]: ✓

COc1ccc2c3c([nH]c2c1)CCN(C)CC3.Cc1ccc(S(=O)(=O)O)cc1 [Tabernanthalog · Tosylate]
Discrete melt (DSC)? [1]: ✓ | Flat baseline (DSC)? [1]: ✓ | Flat baseline pre-melt (TGA)? [1]: ✓ | Unique XRPD? [1]: ✓

COc1ccc2c3c([nH]c2c1)CCN(C)CC3.O=C(O)CCCCC(=O)O [Tabernanthalog · Adipate]
Discrete melt (DSC)? [1]: ✓ | Flat baseline (DSC)? [1]: ✓ | Unique XRPD? [1]: ✓

COc1ccc2c3c([nH]c2c1)CCN(C)CC3.O=P(O)(O)O [Tabernanthalog · Phosphate]
Discrete melt (DSC)? [1]: ✓ | Flat baseline (DSC)? [1]: ✓ | Unique XRPD? [1]: Disordered

COc1ccc2c3c([nH]c2c1)CCN(C)CC3.O=C(O)/C=C/C(=O)O [Sample 11-B]
XRPD (oven dried) [2]: Pattern #6a | Observations (t = 0 @ T = 20° C.) [2]: cloudy

COc1ccc2c3c([nH]c2c1)CCN(C)CC3.O=C(O)/C=C/C(=O)O [Sample 11-Q]
XRPD (oven dried) [2]: Pattern #5 | Observations (t = 0 @ T = 20° C.) [2]: solution

COc1ccc2c3c([nH]c2c1)CCN(C)CC3.O=C(O)/C=C/C(=O)O [Sample 11-F]
XRPD (oven dried) [2]: Pattern #6a | Observations (t = 0 @ T = 20° C.) [2]: suspension

COc1ccc2c3c([nH]c2c1)CCN(C)CC3.O=S(=O)(O)O [Tabernanthalog · Sulfate]
Unique XRPD? [1]: Amorphous

COc1ccc2c3c([nH]c2c1)CCN(C)CC3.O=C(O)/C=C/C(=O)O [Sample 11-P]
XRPD (oven dried) [2]: Pattern #5 | Observations (t = 0 @ T = 20° C.) [2]: suspension
